Reference: PMC12527922, “Cocaine chemogenetics blunts drug-seeking by synthetic physiology” (Nature, 2025)
Where “and” joins values, the source holds several entries; their conditions need not be identical. Identical values can stand only once. Like-named read-outs stand apart in the source and are kept apart here.

Key:
[1] = system: coca-5HT3 in cultured hippocampal neurons; test: Current-clamp of cultured hippocampal neurons expressing coca-5HT3; type: cell-based, rat; details: for DmV MEAN: coca-5HT3-IRES-EGFP, MEAN of cells
[2] = molecular target: T1, coca-GlyR (Homo sapiens, UniProt P23415+P36544, G175K/L141G/Y217F); test: Whole-cell voltage-clamp in HEK293 cells, coca-GlyR; type: cell-based; details: transfected HEK293
T1 construct: expressed in transfected cells; host or cells: HEK293 (ATCC CRL-1573), pcDNA3.1
T1 sequence (P36544+P23415 fused P36544:L141G/P36544:G175K/P36544:Y217F): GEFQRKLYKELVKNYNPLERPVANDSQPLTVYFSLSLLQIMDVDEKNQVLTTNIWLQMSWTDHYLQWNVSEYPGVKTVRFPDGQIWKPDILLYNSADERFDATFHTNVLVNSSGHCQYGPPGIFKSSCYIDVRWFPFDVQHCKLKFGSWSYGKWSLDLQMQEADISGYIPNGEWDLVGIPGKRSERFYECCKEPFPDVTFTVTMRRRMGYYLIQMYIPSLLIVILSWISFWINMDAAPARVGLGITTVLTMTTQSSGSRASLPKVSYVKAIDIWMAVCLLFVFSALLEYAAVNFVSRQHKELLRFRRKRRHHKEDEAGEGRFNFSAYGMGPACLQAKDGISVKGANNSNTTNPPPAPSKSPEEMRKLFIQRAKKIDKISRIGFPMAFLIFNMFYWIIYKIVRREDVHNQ
Experimental: Channel mutants and agonists were further characterized in whole-cell voltage-clamp experiments performed on HEK293 cells. At passage 44–48, cells were plated at low density (1 × 10^3 per cm^2) on poly-D-lysine-coated glass coverslips, then transfected in 10 cm^2 wells using the Fugene 6 transfection reagent (Roche) with DNA plasmids containing both an ion channel cDNA (pcDNA3.1, 2 µg per well) and cDNA for GFP (pCMV, 0.1 μg per well), followed by replacement of the medium after 3 h. Recordings were made 24–72 h after transfection.
Electrophysiological recordings were performed in whole-cell voltage-clamp mode, on an inverted fluorescence microscope (Olympus IX-51) using pClamp software and a […] amplifier (Molecular Devices). Electrophysiological data was filtered at 4 kHz, digitized at 10 kHz using a Digidata 1400 interface (Molecular Devices), recorded on a PC (Dell) and analysed using custom MATLAB software (MathWorks). Solutions were delivered from a gravity fed perfusion system through a capillary tube placed approximately […] from the recorded cell using an eight-way manifold pinch valve system (Nanion), which was controlled from the acquisition software. This allowed for up to seven concentrations of agonist to be tested. […]

[3] = molecular target: coca-5HT3 (Homo sapiens, UniProt P36544, G175K/L141G/Y210F/Y217F); test: [^3H]ASEM displacement, membranes of HEK293 cells expressing coca-5HT3; type: binding, human α7 nAChR LBD, mouse 5HT3 IPD; details: for [3H]ASEM binding, normalised dose-response (DR replicates): HotNM 2.000
Sequence of coca-5HT3 (P23979 242-489): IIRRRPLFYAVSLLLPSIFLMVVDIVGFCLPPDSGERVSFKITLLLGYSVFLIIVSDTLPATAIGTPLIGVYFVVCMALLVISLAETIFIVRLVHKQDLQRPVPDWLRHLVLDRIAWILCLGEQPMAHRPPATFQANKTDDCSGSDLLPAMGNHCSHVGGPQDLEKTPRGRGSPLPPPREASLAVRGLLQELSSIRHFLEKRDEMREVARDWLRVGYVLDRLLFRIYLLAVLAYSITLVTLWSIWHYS
Sequence of coca-5HT3 (P36544 23-224 L141G/G175K/Y210F/Y217F): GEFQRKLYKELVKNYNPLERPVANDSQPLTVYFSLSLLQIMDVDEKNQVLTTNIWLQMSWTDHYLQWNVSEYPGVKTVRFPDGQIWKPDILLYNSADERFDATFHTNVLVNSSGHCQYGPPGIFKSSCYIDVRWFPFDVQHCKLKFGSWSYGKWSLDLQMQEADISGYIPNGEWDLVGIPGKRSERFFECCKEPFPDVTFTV
Experimental: Cells were suspended in Tris-HCl 50 mM pH 7.4 supplemented with protease inhibitor cocktail (1:100, Sigma-Aldrich). HEK293 cells were disrupted with a 6 Polytron homogenizer (Kinematica). Homogenates were centrifuged at 48,000g (50 min, 4 °C) and washed twice in the same conditions to isolate the membrane fraction. Protein was quantified using the bicinchoninic acid method (Pierce). […] Free and membrane-bound radioligands were separated by rapid filtration of 500 μl aliquots in a 96-well plate harvester (Brandel) and washed with 2 ml of ice-cold Tris-HCl buffer. Microscint-20 scintillation liquid (65 μl per well, PerkinElmer) was added to the filter plates, plates were incubated overnight at room temperature and radioactivity counts were determined in the MicroBeta2 plate counter (PerkinElmer) with an efficiency of 41%. Two-site competition curves were fitted using Prism 10 (GraphPad). Ki values were calculated using the Cheng–Prusoff equation.

[4] = system: rats with coca-5HT3 in the LHb; test: Cocaine IVSA (intravenous self-administration); type: in vivo, rat; details: Coca-5HT3 rats
[5] = molecular target: α7–5HT3 mutant chimeric channels (Homo sapiens, UniProt P36544, L141F); test: cell-based; type: cell-based, human α7 nAChR LBD, mouse 5HT3 IPD
Sequence of α7–5HT3 mutant chimeric channels (Homo sapiens, UniProt P36544, L141F) (P36544 23-224 L141F): as the sequence (P36544 23-224 L141G/G175K/Y210F/Y217F) above, with G119F, K153G, F188Y, F195Y counted along it
Sequence of α7–5HT3 mutant chimeric channels (Homo sapiens, UniProt P36544, L141F) (P23979 242-489, further chain): as the sequence (P23979 242-489) above

[6] = molecular target: α7–5HT3 mutant chimeric channels (Homo sapiens, UniProt P36544, S170F); test: cell-based; type: cell-based, human α7 nAChR LBD, mouse 5HT3 IPD
Sequence of α7–5HT3 mutant chimeric channels (Homo sapiens, UniProt P36544, S170F) (P36544 23-224 S170F): as the sequence (P36544 23-224 L141G/G175K/Y210F/Y217F) above, with G119L, S148F, K153G, F188Y, F195Y counted along it
Sequence of α7–5HT3 mutant chimeric channels (Homo sapiens, UniProt P36544, S170F) (P23979 242-489, further chain): as the sequence (P23979 242-489) above

[7] = molecular target: α7–5HT3 mutant chimeric channels (Homo sapiens, UniProt P36544, Q79G); test: cell-based; type: cell-based, human α7 nAChR LBD, mouse 5HT3 IPD
Sequence of α7–5HT3 mutant chimeric channels (Homo sapiens, UniProt P36544, Q79G) (P36544 23-224 Q79G): as the sequence (P36544 23-224 L141G/G175K/Y210F/Y217F) above, with Q57G, G119L, K153G, F188Y, F195Y counted along it
Sequence of α7–5HT3 mutant chimeric channels (Homo sapiens, UniProt P36544, Q79G) (P23979 242-489, further chain): as the sequence (P23979 242-489) above

[8] = estimated from self-administration; cited from earlier work
[9] = system: coca-GlyR in cultured hippocampal neurons; test: Current-clamp of cultured hippocampal neurons expressing coca-GlyR; type: cell-based, rat
[10] = Two sites - Fit Ki, best-fit value per replicate
[11] = Two sites - Fit Ki, best-fit value, single experiment

SMILES: COC(=O)[C@H]1[C@@H](OC(=O)c2ccccc2)C[C@@H]2CC[C@H]1N2C [cocaine]
- current required to elicit an action potential (rheobase) ([1]; 3 µM cocaine): reduced
- DmV MEAN ([1]; cocaine 0.1 uM): 0.3818 mV
- DmV MEAN ([1]; cocaine 0.3 uM): 1.236 mV
- DmV MEAN ([1]; cocaine 1 uM): 4.155 mV
- DmV MEAN ([1]; cocaine 3 uM): 11.3545 mV
- DmV MEAN ([1]; cocaine 10 uM): 12.55 mV
- neuronal firing ([1]; cocaine 1–3 µM): increased
- depolarization of neurons expressing coca-5HT3 ([1]; current-clamp): depolarized neurons in a dose-dependent manner
- currents from coca-GlyR [2]: large, sustained currents
- binding to coca-5HT3 [3]: biphasic manner
- Ki ([3]; KiHi MEAN, Two sites - Fit Ki, MEAN of replicates, high-affinity site, concentrations in log(M)): 1.43e-11 M
- Ki ([3]; KiHi, Two sites - Fit Ki, best-fit value per replicate, high-affinity site, concentrations in log(M)): 2.45e-11 M and 4.07e-12 M
- Ki ([3]; KiHi, Two sites - Fit Ki, best-fit value, single experiment): 3.36e-09 M and 4.69e-10 M and 1.04e-09 M
- Ki ([3]; KiLo MEAN, Two sites - Fit Ki, MEAN of replicates, low-affinity site, concentrations in log(M)): 8.42e-07 M
- Ki ([3]; KiLo, Two sites - Fit Ki, best-fit value per replicate, low-affinity site, concentrations in log(M)): 1.34e-06 M and 3.42e-07 M
- FractionHi MEAN ([3]; Two sites - Fit Ki, MEAN of 3 experiments): 0.4542
- Ki ([3]; Two sites - Fit Ki, MEAN of 3 experiments, read-out: KiHi MEAN): 1.62e-09 M
- Ki ([3]; Two sites - Fit Ki, MEAN of 3 experiments, read-out: KiLo MEAN): 1.05e-05 M
- Bottom [3, 10]: 2.185 and 3.88
- Top [3, 10]: 100.5 and 97.8
- FractionHi ([3]; Two sites - Fit Ki, best-fit value per replicate, fraction of high-affinity sites): 0.3742 and 0.3845
- logKiHi ([3]; Two sites - Fit Ki, best-fit value per replicate, high-affinity site, concentrations in log(M), HotNM 2.000, HotKdNM 0.1500): -10.61 and -11.39
- logKiLo ([3]; Two sites - Fit Ki, best-fit value per replicate, low-affinity site, concentrations in log(M), HotNM 2.000, HotKdNM 0.1500): -5.872 and -6.466
- FractionHi [3, 11]: 0.6584 and 0.3371 and 0.3672
- Top [3, 11]: 99.93 and 93.31 and 95.95
- FractionHi MEAN ([3]; Two sites - Fit Ki, MEAN of replicates): 0.3794
- high-affinity binding sites ([3]; biphasic curve, displacement of [^3H]ASEM 2 nM): 45 ± 10%
- [3H]ASEM binding, normalised dose-response (DR replicates) ([3]; competitor log(M) -4): 11.458 and 0
- [3H]ASEM binding remaining, single experiment ([3]; competitor log(M) -5): 23.47 and 26.447 and 37.669
- [3H]ASEM binding, normalised dose-response (DR replicates) ([3]; competitor log(M) -5): 47.775 and 41.228
- [3H]ASEM binding remaining, single experiment ([3]; competitor log(M) -5.5): 17.557
- [3H]ASEM binding, normalised dose-response (DR replicates) ([3]; competitor log(M) -5.5): 48.554 and 26.456
- [3H]ASEM binding remaining, single experiment ([3]; competitor log(M) -6): 27.001
- [3H]ASEM binding, normalised dose-response (DR replicates) ([3]; competitor log(M) -6): 57.625 and 37.983
- [3H]ASEM binding remaining, single experiment ([3]; competitor log(M) -6.5): 30.205 and 53.107
- [3H]ASEM binding, normalised dose-response (DR replicates) ([3]; competitor log(M) -6.5): 51.124 and 74.04
- [3H]ASEM binding remaining, single experiment ([3]; competitor log(M) -7): 57.024 and 47.634
- [3H]ASEM binding, normalised dose-response (DR replicates) ([3]; competitor log(M) -7): 70.9 and 74.174
- [3H]ASEM binding, normalised dose-response (DR replicates) ([3]; competitor log(M) -7.5): 71.728
- [3H]ASEM binding remaining, single experiment ([3]; competitor log(M) -8): 65.97 and 67.573 and 58.641
- [3H]ASEM binding, normalised dose-response (DR replicates) ([3]; competitor log(M) -8): 67.385 and 47.743
- [3H]ASEM binding remaining, single experiment ([3]; competitor log(M) -8.5): 74.698 and 69.889 and 68.057
- [3H]ASEM binding remaining, single experiment ([3]; competitor log(M) -9): 100.179 and 77.048 and 83.003
- [3H]ASEM binding, normalised dose-response (DR replicates) ([3]; competitor log(M) -9): 72.343 and 49.428
- [3H]ASEM binding remaining, single experiment ([3]; competitor log(M) -9.5): 97.899 and 80.952 and 89.425
- [3H]ASEM binding remaining, single experiment ([3]; competitor log(M) -10): 96.081 and 90.356 and 93.104
- [3H]ASEM binding, normalised dose-response (DR replicates) ([3]; competitor log(M) -10): 79.023
- [3H]ASEM binding remaining, single experiment ([3]; competitor log(M) -10.5): 106.622 and 85.323 and 92.652
- [3H]ASEM binding remaining, single experiment ([3]; competitor log(M) -11): 94.021 and 93.563 and 93.105
- [3H]ASEM binding, normalised dose-response (DR replicates) ([3]; competitor log(M) -11): 91.338
- [3H]ASEM binding remaining, single experiment ([3]; competitor log(M) -13): 96.794 and 101.374 and 101.832
- [3H]ASEM binding, normalised dose-response (DR replicates) ([3]; competitor log(M) -13): 100.546 and 98.09
- Ki ([3]; high-affinity inhibition constant (KiH), displacement of [^3H]ASEM 2 nM, two-site fit): 1.6e-09 ± 9e-10 M
- Ki ([3]; logKiHi, Two sites - Fit Ki, best-fit value, single experiment): 3.37e-09 M and 4.69e-10 M and 1.04e-09 M
- Ki ([3]; read-out: low-affinity inhibition constant (KiL), displacement of [^3H]ASEM 2 nM, two-site fit): 1e-05 ± 7e-06 M
- Sheet 3g, Mean (per-rat counts at each dose) ([4]; Dose 0.0625): 32.0909
- Sheet 3h, Mean (sheet 3g count x dose, intake) ([4]; Dose 0.0625): 2.006
- Sheet 3g, Mean (per-rat counts at each dose) ([4]; Dose 0.125): 43.1818
- Sheet 3h, Mean (sheet 3g count x dose, intake) ([4]; Dose 0.125): 5.398
- Sheet 3g, Mean (per-rat counts at each dose) ([4]; Dose 0.25): 30.2727
- Sheet 3h, Mean (sheet 3g count x dose, intake) ([4]; Dose 0.25): 7.568
- Sheet 3g, Mean (per-rat counts at each dose) ([4]; Dose 0.5): 19.0909
- Sheet 3h, Mean (sheet 3g count x dose, intake) ([4]; Dose 0.5): 9.545
- Sheet 3g, Mean (per-rat counts at each dose) ([4]; Dose 1): 10.8182
- Sheet 3h, Mean (sheet 3g count x dose, intake) ([4]; Dose 1): 10.8182
- EC50 [5]: > 30000 nM
- EC50 ([5]; read-out: EC50 at α75HT3 L141F, sheet 1d, single determinations): > 30000 nM
- EC50 [6]: > 30000 nM
- EC50 [7]: > 30000 nM
- EC50 ([7]; read-out: EC50 at a7 5HT3 Q79G, sheet 1d, single determinations): > 30000 nM
- brain cocaine concentrations [8]: 2.5 to 20 µM
- rheobase ([9]; coca-GlyR neurons, 10 uM, single cells): 200 pA
- firing in response to current injection ([9]; neurons with coca-GlyR): inhibited
- membrane input resistance ([9]; neurons with coca-GlyR): dose-dependent reduction
- rheobase ([9]; neurons with coca-GlyR, cocaine 3 and 10 µM): increased
